Experimental data taken from patent US9896482B2, “Beta hairpin peptides having antiviral properties against Dengue virus” (CENTRO DE INGENIERÍA GENÉTICA Y BIOTECNOLOGÍA, priority 2014, dated 2018).
Like-named read-outs stand apart in the source and are kept apart here. Marks after values point to notes of the source that are not given here. Where a SMILES comes first, the peptide text is derived from it. Bridges are numbered along the chain shown (N, C = ends). [ ]: non-standard residue; d: D form.

Legend:
[1] = test system: DENV serotype 2 (NIBSC code S16803); experiment: Plaque reduction assay in Vero cells, DENV2; format: cell-based, Dengue virus
Method: (§1) The cells were grown in 24 well plates until the monolayer reached approximately 90% confluence, after which they were washed twice with MEM medium without Fetal Bovine Serum (FBS). Then, peptide dilutions were added and the cell-peptide mixtures were incubated typically for 1 hour at 37° C., followed by the addition of a DENV serotype 2 preparation (NIBSC code S16803) at a multiplicity of infection (m.o.i.) of 0.001. The cells were then incubated for 1 hour at 37° C., and once the period of incubation with the viral inoculum concluded, were washed again to remove unbound virions and incubated for 5 days at 37° C. in high density medium (MEM supplemented with non-essential amino acids, 1% FBS, 1% carboxymethylcellulose) in order to let viral plaques form. Afterwards, the cells were stained with 0.1% Naphtol Blue Black in 0.15 M sodium acetate. Two replicates per experimental point were used in each assay, and three independent determinations were performed for each sample.
Next, it was decided to compare the antiviral activity of peptides PHB4 and HDIII3CL against all four DENV serotypes, with the objective of comparing their respective IC50 values. This comparison was performed with plaque reduction assays on Vero cells, adding the viral inoculum for each serotype (DENV1, NIBSC code West Pac 74, DENV2, NIBSC, code S16803; DENV3, NIBSC, code CH53489; DENV 4, NIBSC code TVP360) at a m.o.i. of 0.001.

[2] = test system: DENV1 (NIBSC code West Pac 74); experiment: Plaque reduction assay in Vero cells, DENV1; format: cell-based, Dengue virus; settings: m.o.i. 0.001, read-out: Antiviral activity IC50 vs DENV1
Method: as §1
(§2) Next, it was decided to compare the antiviral activity of peptides PHB4 and HDIII3CL against all four DENV serotypes, with the objective of comparing their respective IC50 values. […]

[3] = test system: DENV3 (NIBSC code CH53489); experiment: Plaque reduction assay in Vero cells, DENV3; format: cell-based, Dengue virus; settings: m.o.i. 0.001, read-out: Antiviral activity IC50 vs DENV3
Method: as §1, §2

[4] = test system: DENV 4 (NIBSC code TVP360); experiment: Plaque reduction assay in Vero cells, DENV4; format: cell-based, Dengue virus; settings: m.o.i. 0.001, read-out: Antiviral activity IC50 vs DENV4
Method: as §1, §2

[5] = Transmission electron microscopy of aggregate morphology; format: physicochemical
Method: In order to analyze the morphology of the aggregates formed by peptide PHB4, peptide solutions were subjected to different experimental treatments where conditions such as temperature, incubation time and the presence of electrolytes were manipulated to facilitate aggregation (FIG. 10). For this particular study, two peptide solutions (2 mg/mL, 0.73 mM) were prepared, one in water and another in PBS. A sample was then taken from each, directly fixed on the grids and observed under the microscope (T0 samples). The remainder was incubated for 1 hour at 50° C. and then samples were taken and fixed immediately (T1 samples). The remainder was then incubated for an additional 2 hours at room temperature, and then fixed (T2 samples).

sLRP1-CIV = target: T1, sLRP1-CIV (Homo sapiens, UniProt Q07954); experiment: Biacore (SPR) binding to immobilized sLRP1-CIV; settings: peptides at 20 μM
T1 construct: purchased R&D Systems, USA
Method: The interaction of the beta hairpin peptides with soluble fragments of the LRP1 receptor was studied by Surface Plasmon Resonance (SPR), using a Biacore X unit. In this technique, one of the interaction partners to be studied is immobilized on the surface of a chip, and the other interaction partner is dissolved in a solution that runs through the measurement cell on top of the interaction surface, under conditions of controlled flow. The association and dissociation of interacting partners is measured in resonance units (RU) and plotted, as a function of time, on charts known as ‘sensorgrams’. SPR, therefore, enables the experimenter to obtain detailed information about the interaction without having to label either interaction partner.
In this example, one channel of a CM5 chip (GE Healthcare, USA) was used to immobilize protein sLRP1-CIV on its surface at high density (see Table 6) and recombinant Human Serum Albumin (rHSA, Sigma-Aldrich, USA) was immobilized on the other channel.
Although it was decided to immobilize sLRP1-CIV at high density because these conditions make easier the detection of any potential interactions with compounds whose molecular weight is lower than that of average proteins (such as the peptides this experiment is intended to study), it must be stressed that in high-density surfaces, mass transfer limitations and the possibility of multivalent binding make difficult the accurate determination of kinetic constants. Therefore, and in order to characterize in greater detail the sLRP1-CIV binding surface, different RAP dilutions (0.6-20 μM) were loaded, and RU were registered under conditions of interaction equilibria (250 sec, see FIG. 13B). […] The data also indicate that immobilized sLRP1-CIV faithfully reproduces the previously reported characteristics of the LRP1-RAP interaction.
The binding of beta hairpin peptides to sLRP1-CIV was studied by loading 20 μM dilutions in running buffer of the different peptide variants onto the sLRP1-CIV chip characterized above. The high strength of the resulting signals is consistent with the binding of aggregated, rather than monomeric forms of the peptides. Therefore, the observed variations between different peptides may reflect either differences in the affinity of unitary peptide interactions or differences in aggregation numbers and/or geometries that lead to variations in the number of peptide units able to simultaneously engage immobilized sLRP1-CIV molecules in a multivalent manner. […] The difference between peptides HDIII3CL2 and HDIII3CL is that the former has an additional C-terminal lysine and has, therefore, a stronger cationic character, which may facilitate additional electrostatic interactions with the negatively charged LRP1 receptor.

DENV1 = experiment: In vivo protection assay, intracranial challenge, DENV1; design: species or system Balb/c mice; settings: 30 μg peptide inoculated intracranially with 10 median lethal doses, 21 days
Method: (§3) An experiment was set up to evaluate the in vivo antiviral activity of peptide PHB4 and compare it to that of peptide HDIII3CL. For this purpose, groups of 12 adult Balb/c mice (20 g average body weight) were anesthetized by ether inhalation and inoculated intracranially with 20 μL of viral preparations containing 10 times the median lethal dose of this model and the peptide to be evaluated. The animals recovered quickly and already appeared alert five minutes after the treatment, and were monitored afterwards for 21 days. The data were evaluated using the Kaplan-Meier logarithmic rank test.

DENV3 = experiment: In vivo protection assay, intracranial challenge, DENV3; design: species or system Balb/c mice; settings: 30 μg peptide, morbidity evaluated instead of lethality
Method: as §3

DENV4 = experiment: In vivo protection assay, intracranial challenge, DENV4; design: species or system Balb/c mice; settings: 30 μg peptide inoculated intracranially with 10 median lethal doses, 21 days
Method: as §3

## CC[C@H](C)[C@@H]1NC(=O)[C@H](Cc2ccccc2)NC(=O)[C@H](Cc2c[nH]c3ccccc23)NC(=O)[C@H](CC(N)=O)NC(=O)[C@H](C(C)C)NC(=O)[C@H](CCCCN)NC(=O)[C@H](Cc2c[nH]c3ccccc23)NC(=O)[C@H](CCCCN)NC(=O)[C@H]2CCCN2C(=O)[C@H](CCCNC(=N)N)NC(=O)[C@H]([C@@H](C)O)NC(=O)[C@H](Cc2c[nH]c3ccccc23)NC(=O)[C@H](Cc2ccc(O)cc2)NC(=O)[C@H](C(C)C)NC(=O)[C@H](CCC(=O)O)NC(=O)[C@H]([C@@H](C)CC)NC(=O)[C@@H](N)CSSC[C@@H](C(=O)N[C@@H](CCCCN)C(=O)N[C@@H](CCCCN)C(=O)N[C@@H](CCCCN)C(N)=O)NC1=O [PHB4] (H-CIEVYWTR[dP]KWKVNWFICKKK-NH2; disulfide 1-18; N-terminus assumed)
[1]; DENV2, plaque reduction, NA = no detectable activity at concentrations lower than or equal to 100 μM, read-out: IC50, antiviral activity in Vero cells (50% inhibitory activity)
  IC50: 3 nM
[1]; Vero cells, m.o.i. 0.001, read-out: Antiviral activity IC50 vs DENV2
  IC50: 3 nM
[1]; depending on serotype, DENV1-4, Vero cells
  Fold more potent than peptide HDIII3CL: 4000- to 7500 fold
[2]
  IC50: 2 nM
[3]
  IC50: 5 nM
[4]
  IC50: 10 nM
[5]; 2 mg/mL in water, after 50° C. treatment
  Size of protofibril/fibril-type filamentous structures: 5-10 nm
[5]; 2 mg/mL in water, room temperature
  Diameter of particulates: 5-20 nm
[5]; 2 mg/mL, immediately after dissolving in PBS
  Size of filamentous structures: 5-20 nm
sLRP1-CIV
  Binding to sLRP1-CIV by SPR, in words: strongest binding
DENV1
  Protection (%) DENV1: 100*** %
DENV3
  Protection (%) DENV3: 100*** %
DENV4
  Protection (%) DENV4: 100*** %
